Structures can show the parent of a compound that is named as a salt.

Consider `O=C1N(CCN2CCCCC2)CN(c2ccccc2)C12CCN(C1(c3ccccc3)CCCCCC1)CC2` (as salt: HCl), for which the melting point fell in the range of 174 to 178 °C.

`NCCCN1CN(c2ccccc2)C2(CCN(C3(c4ccccc4)CCCCCC3)CC2)C1=O` (as salt: HCl) displayed a melting point of 150 to 154 °C.

For `CC1(N2CCC3(CC2)C(=O)N(CCCN)CN3c2ccccc2)CCCCCC1` (as salt: HCl), the melting point was 216 to 220 °C.

On to `CC1(N2CCC3(CC2)C(=O)N(CCN2CCCCC2)CN3c2ccccc2)CCCCCC1` (as salt: HCl), for which the melting point was 50 to 53 °C.

On to `CC1(N2CCC3(CC2)C(=O)NCN3c2ccccc2)CCC=CCC1` (as salt: hydrochloride), for which the melting point lay in the range of 251 to 254 °C.

In general, melting point refers to the temperature of the solid-liquid transition.

The record behind these values is patent publication US6465478B1 (dated 2002).
